ChEMBL document CHEMBL1201862, “PubChem BioAssay data set” (2004)
Active and inactive are the calls of the source.

Experiments:
Trypsin = Trypsin (Sus scrofa, UniProt P00761); assay: porcine trypsin inhibitors, dose response, selectivity assay for Rce1 protease inhibitor project, biochemical, quenched peptide fluorescence, cherry-pick (AID 488789)
Protein RecA = molecular target: T1, Protein RecA (Mycobacterium tuberculosis, UniProt P9WHJ3); assay: Fluorescence Cell-Free Homogeneous Dose Retest to Identify Inhibitors of RecA-Intein Splicing Activity. [Related pubchem assays (depositor defined):AID2097, AID2223, AID489010, AID492950]; assay type: functional
T1 sequence (P9WHJ3 whole entry): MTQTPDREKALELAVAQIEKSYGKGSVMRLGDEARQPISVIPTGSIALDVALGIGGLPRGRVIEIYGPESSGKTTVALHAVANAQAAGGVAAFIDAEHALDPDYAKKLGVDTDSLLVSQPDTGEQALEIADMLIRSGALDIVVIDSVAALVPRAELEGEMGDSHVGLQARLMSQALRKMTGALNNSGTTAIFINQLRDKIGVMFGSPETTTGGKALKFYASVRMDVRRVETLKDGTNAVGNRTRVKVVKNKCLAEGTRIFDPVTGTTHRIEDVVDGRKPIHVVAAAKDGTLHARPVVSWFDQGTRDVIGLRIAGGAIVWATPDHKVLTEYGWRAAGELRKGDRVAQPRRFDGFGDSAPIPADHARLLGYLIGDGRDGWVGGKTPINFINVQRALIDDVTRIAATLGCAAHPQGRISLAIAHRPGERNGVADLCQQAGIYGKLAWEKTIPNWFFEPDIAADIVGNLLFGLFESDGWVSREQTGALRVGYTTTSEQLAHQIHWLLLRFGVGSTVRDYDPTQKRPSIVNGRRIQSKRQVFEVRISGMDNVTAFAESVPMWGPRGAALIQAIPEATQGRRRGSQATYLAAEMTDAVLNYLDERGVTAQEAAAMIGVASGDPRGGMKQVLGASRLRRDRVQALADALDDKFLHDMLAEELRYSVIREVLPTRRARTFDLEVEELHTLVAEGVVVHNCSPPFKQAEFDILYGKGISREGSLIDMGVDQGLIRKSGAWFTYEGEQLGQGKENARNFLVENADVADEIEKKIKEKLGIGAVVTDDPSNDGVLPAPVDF

CAAX prenyl protease 2 = molecular target: T2, CAAX prenyl protease 2 (Saccharomyces cerevisiae S288c, UniProt Q03530); assay type: biochemical
T2 sequence (Q03530 whole entry): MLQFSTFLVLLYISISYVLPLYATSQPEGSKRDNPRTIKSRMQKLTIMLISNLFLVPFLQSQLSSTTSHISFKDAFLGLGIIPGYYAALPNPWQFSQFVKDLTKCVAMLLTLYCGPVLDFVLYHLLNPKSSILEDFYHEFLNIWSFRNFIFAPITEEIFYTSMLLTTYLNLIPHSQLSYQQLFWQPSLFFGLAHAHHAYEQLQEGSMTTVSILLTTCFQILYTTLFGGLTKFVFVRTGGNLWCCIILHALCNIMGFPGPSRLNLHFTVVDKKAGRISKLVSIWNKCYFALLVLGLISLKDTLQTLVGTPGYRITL

[1] = ADAM10 protease inhibitors, dose response, selectivity assay for ADAM17 exosite inhibitor project, biochemical, FRET peptide substrate, recombinant human ADAM10 (AID 743259);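 further: ADAM10 enzyme cleaving a FRET peptide substrate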
[2] = Luminescence Cell-Based Dose Retest to Confirm Inhibitors of Cancer Stem Cells. [Related pubchem assays (depositor defined):AID2717, AID2721]; assay type: functional; settings: Homo sapiens
[3] = molecular target: Disintegrin and metalloproteinase domain-containing protein 17 (Homo sapiens, UniProt P78536); assay: exosite inhibitors of ADAM17, dose response, biochemical (AID 743260)
Disintegrin and metalloproteinase domain-containing protein 17, sequence (P78536 whole entry, the tested form may be a part): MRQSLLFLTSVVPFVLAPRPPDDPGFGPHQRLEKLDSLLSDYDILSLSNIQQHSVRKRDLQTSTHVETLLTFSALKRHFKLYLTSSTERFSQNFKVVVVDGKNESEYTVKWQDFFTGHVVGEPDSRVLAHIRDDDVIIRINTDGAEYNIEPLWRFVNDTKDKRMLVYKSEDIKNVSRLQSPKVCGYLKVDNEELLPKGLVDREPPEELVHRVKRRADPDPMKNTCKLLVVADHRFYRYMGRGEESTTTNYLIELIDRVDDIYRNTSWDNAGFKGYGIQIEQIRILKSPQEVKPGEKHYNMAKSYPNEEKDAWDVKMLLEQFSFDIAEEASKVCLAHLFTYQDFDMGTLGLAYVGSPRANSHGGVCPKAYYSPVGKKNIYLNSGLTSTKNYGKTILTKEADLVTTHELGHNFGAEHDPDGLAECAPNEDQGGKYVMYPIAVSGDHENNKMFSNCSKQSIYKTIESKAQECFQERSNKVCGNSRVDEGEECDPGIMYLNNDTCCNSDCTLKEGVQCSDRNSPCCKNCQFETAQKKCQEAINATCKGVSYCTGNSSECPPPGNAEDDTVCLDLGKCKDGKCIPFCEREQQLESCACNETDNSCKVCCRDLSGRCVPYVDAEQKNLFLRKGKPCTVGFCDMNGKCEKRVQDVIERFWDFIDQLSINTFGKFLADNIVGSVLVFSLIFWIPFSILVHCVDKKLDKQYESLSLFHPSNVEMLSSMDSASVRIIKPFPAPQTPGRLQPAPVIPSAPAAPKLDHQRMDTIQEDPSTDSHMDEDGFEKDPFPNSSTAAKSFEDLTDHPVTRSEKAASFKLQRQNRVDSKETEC

[4] = molecular target: T3, Replicative DNA helicase DnaB (Mycobacterium tuberculosis, UniProt P9WMR3); assay: DnaB intein splicing inhibitors, dose response, biochemical, cell-free fluorescence (AID 449749); assay type: functional
T3 sequence (P9WMR3 whole entry): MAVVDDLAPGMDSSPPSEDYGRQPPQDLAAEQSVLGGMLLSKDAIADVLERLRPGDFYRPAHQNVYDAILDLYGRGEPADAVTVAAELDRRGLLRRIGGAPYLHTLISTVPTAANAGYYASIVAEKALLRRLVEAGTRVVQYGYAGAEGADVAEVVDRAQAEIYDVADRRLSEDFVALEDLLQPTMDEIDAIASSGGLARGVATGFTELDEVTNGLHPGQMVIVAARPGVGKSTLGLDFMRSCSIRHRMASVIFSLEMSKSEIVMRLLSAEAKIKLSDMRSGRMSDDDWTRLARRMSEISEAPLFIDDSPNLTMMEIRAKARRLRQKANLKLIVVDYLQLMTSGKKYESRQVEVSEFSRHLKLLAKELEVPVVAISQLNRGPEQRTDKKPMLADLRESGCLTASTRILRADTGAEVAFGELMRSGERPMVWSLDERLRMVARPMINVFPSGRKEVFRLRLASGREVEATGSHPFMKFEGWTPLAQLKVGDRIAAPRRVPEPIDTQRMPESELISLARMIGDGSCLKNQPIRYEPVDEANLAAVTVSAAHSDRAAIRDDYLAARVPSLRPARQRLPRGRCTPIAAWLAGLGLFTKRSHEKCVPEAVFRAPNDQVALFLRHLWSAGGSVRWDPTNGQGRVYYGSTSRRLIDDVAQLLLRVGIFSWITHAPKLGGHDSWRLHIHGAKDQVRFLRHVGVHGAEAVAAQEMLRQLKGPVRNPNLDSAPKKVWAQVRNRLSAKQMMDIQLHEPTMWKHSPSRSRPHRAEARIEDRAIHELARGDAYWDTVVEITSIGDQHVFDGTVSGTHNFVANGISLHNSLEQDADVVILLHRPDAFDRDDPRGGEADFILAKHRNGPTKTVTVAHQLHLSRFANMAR

[5] = molecular target: Alkaline phosphatase, placental type (Homo sapiens, UniProt P05187); assay: PLAP enzyme inhibitors, confirmation, biochemical, luminescence (AID 1512); assay type: functional
Alkaline phosphatase, placental type, sequence (P05187 whole entry): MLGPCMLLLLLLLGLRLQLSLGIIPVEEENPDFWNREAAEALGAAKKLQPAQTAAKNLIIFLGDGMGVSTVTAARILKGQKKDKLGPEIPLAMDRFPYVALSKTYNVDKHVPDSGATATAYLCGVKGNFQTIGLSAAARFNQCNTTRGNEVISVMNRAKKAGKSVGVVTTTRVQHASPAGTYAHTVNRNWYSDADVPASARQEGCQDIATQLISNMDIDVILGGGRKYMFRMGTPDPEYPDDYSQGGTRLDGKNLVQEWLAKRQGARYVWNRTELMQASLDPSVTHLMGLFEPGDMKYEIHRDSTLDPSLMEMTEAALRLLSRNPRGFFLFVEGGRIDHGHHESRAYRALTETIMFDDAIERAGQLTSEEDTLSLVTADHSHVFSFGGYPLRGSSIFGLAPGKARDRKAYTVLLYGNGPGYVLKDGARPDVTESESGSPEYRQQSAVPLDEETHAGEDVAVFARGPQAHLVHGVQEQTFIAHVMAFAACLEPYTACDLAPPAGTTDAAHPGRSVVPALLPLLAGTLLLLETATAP

[6] = molecular target: T4, Alkaline phosphatase, tissue-nonspecific isozyme (Homo sapiens, UniProt P05186); assay: human TNAP enzyme inhibitors, SAR follow-up, biochemical, luminescent, dose response (AID 1056)
T4 sequence (P05186 whole entry): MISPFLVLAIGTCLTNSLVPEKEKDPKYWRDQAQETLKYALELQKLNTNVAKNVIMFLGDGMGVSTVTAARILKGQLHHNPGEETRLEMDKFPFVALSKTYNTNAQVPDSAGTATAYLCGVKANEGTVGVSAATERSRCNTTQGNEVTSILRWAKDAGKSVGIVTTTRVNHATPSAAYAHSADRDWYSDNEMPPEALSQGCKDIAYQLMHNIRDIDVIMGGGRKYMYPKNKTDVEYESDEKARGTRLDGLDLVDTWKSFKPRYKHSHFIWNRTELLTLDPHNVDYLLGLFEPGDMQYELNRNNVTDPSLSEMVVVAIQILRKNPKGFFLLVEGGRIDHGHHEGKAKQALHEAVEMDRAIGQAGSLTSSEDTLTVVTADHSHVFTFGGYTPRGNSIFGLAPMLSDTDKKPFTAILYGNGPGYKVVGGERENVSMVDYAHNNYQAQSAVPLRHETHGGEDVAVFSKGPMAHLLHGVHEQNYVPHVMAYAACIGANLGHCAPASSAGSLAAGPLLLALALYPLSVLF

Vero [7] = assay: cells; assay type: functional; settings: Chlorocebus sabaeus
Vero [8] = assay: cells; assay type: functional, cell-based; settings: Chlorocebus sabaeus
[9] = inhibition of K1F phage lysis, E. coli UTI89, bacterial capsule biogenesis inhibitors, alamar blue (AID 488966); assay type: functional
[10] = molecular target: G-protein coupled receptor 55 (Homo sapiens, UniProt Q9Y2T6); assay: GPR55 agonists via beta-arrestin recruitment, primary screen, imaging, U2OS cells, beta-arrestin-GFP redistribution (AID 1961); assay type: functional
G-protein coupled receptor 55, sequence (Q9Y2T6 whole entry): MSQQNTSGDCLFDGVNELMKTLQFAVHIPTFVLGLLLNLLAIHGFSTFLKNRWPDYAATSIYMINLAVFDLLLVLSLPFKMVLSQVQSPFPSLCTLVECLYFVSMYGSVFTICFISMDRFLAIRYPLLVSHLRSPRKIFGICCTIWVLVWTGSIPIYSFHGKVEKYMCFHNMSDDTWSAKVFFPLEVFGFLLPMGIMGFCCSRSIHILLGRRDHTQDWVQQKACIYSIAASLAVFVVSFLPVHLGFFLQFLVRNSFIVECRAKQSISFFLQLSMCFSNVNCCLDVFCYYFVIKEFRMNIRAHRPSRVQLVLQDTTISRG

Trypsin, sequence (P00761 whole entry): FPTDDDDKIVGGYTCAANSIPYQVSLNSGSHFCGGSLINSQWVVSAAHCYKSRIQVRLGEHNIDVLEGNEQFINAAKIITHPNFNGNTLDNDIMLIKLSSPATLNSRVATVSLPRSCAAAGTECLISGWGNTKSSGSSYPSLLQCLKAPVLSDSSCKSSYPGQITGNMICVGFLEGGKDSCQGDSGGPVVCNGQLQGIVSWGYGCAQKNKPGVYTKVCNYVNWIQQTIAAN

N=c1c2c(ncn1Cc1ccco1)Oc1ccc3ccccc3c1C2c1ccccc1 (stereo not drawn)
AC50 (Trypsin): 7.73 µM (active) | EC50 (Protein RecA): 16.7 µM (active) | AC50 (CAAX prenyl protease 2): 27.2 µM (active) | IC50 [1]: > 7.72 µM (active) | AC50 [2]: 2.09 µM (active) | IC50 [3]: > 69.5 µM (inactive) | AC50 [4]: 7.51 µM (active)

C=CCn1c(SCC(=O)c2ccc(O)c(O)c2)nnc1-c1ccc(C)cc1
IC50 [5]: 8.57 µM (active) | IC50 [6]: > 100 µM (inactive)

NCC1CCN(c2nc3ccccc3c3c2CCCC3)CC1
CC50 (Vero [7]): 19.2 µM (active) | IC50 (Vero [8]): > 25 µM (active) | IC50 [9]: > 150 µM (active)

CCN(CC)c1ccc(/C=N/OCC(=O)Nc2cccc(C)c2)cc1
EC50 [10]: > 32 µM (inactive)
